Test results from article PMC8039949, “A novel small-molecule PROTAC selectively promotes tau clearance to improve cognitive functions in Alzheimer-like models” (Theranostics, 2021).

What was measured:
[1] = test system: tau; experiment: Multiple-doses subcutaneous administration in hTau transgenic mice, brain tau; type: in vivo, mouse; details: 12 m-old hTau transgenic mice, subcutaneous 3 mg/kg once every 6 days, 5 times
Experimental: (§1) For brain surgery and stereotaxic cerebroventricular drug delivery, the mice were placed in a stereotaxic apparatus and anesthetized with 2% isoflurane (RWD Life Science, R510-22) through a nose cone (300-500 mL/min, RWD Life Science, China, R500). The scalp was incised along the midline between the ears after the mice were sterilized with iodophors and 75% (vol/vol) alcohol. The holes were drilled stereotaxically in the skull at a cerebroventricular location (posterior 0.22 mm, lateral 0.9 mm, and ventral 2.3 mm relative to bregma). Using a microinjection system (Shenzhen RWD Life Technology Co., Ltd; RWD 69100), C004019 (5 μL, 200 μM) was infused at a rate of 0.5 μL/min. The needle was kept in place for 10 min before withdrawal. After the skin was sutured, the mice were placed on a heater for analepsia. For subcutaneous injection, C004019 was diluted with 20% HP-β-CD and injected under the skin on the back neck to reach a final concentration of 3 mg/kg (low dose) or 15 mg/kg (high dose).
The cells or hippocampal/cortex tissues were homogenized for ~ 30 min on ice in buffer [50 mM Tris·HCl pH 7.4-7.5, 100 mM NaCl, 1% (vol/vol) Triton X-100, 5 mM EDTA, 1:100 PMSF, 1:1,000 protease inhibitor cocktail containing 4-(2-Aminoethyl)-benzenesulfonyl fluoride hydrochloride, aprotinin, bestatin, leupeptin, E-64, and pepstatin A stored at 4 °C], and then centrifuged at 12,000 × g at 4 °C for 20 min. The supernatant was collected and the protein levels were analyzed using bicinchoninic acid (BCA, KF016, Sigma-Aldrich) by following the manufacturer's instruction (served as soluble protein). The pellet was further incubated with 8% (wt/vol) SDS buffer at 4 °C and then treated by ultrasonic wave to reach a complete resuspension. The suspension was spun (18,000 × g, 4 °C for 20 min) and the supernatant collected (served as insoluble fraction). The supernatant of different faction was respectively mixed with loading buffer (3:1, vol/vol) containing 200 mM Tris-HCl, pH 6.8, 8% SDS, 40% glycerol, and boiled for 10 min. […] Immunoreactive bands were quantitatively analyzed by Image J2x software. […]

[2] = molecular target: T1, tau (UniProt P10636+P40338, P618L); experiment: Intracerebroventricular infusion in 3xTg-AD mice, brain tau by Western blotting and immunohistochemistry; type: in vivo, mouse; details: 9.5 m-old 3xTg-AD mice; intracerebroventricular 5 μL, 200 μM; 48 h
T1 construct: tissue stock number 34830; host or cells: hippocampus and cortex of 9.5 m-old 3xTg-AD mice
T1 sequence (P10636 1-383 isoform P10636-6 P243L): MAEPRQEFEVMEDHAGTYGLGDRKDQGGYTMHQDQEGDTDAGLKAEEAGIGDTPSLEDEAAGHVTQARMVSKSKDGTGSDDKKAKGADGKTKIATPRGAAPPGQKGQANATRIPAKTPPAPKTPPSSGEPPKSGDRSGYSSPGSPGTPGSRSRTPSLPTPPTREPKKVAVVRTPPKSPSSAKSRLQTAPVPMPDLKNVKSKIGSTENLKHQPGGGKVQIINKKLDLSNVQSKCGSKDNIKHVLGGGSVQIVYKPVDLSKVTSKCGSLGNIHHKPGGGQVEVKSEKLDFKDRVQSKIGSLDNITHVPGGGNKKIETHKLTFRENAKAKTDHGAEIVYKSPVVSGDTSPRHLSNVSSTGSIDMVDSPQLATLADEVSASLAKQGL
T1 sequence (P40338 whole entry, the tested form may be a part): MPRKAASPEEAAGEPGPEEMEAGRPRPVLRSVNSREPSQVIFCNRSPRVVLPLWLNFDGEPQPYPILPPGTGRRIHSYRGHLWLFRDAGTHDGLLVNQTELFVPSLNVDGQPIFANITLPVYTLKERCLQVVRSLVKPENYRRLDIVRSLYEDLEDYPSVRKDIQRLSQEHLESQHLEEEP
T1 sequence (P83940 whole entry partner, the tested form may be a part): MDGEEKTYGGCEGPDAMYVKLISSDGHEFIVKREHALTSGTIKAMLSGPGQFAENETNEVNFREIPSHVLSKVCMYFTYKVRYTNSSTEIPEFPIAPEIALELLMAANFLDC
T1 sequence (P62869 whole entry partner, the tested form may be a part): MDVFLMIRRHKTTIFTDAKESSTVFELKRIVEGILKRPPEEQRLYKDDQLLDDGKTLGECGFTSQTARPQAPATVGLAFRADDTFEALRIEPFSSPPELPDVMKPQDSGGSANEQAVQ
Experimental: as §1, with “The needle was kept in place for 10 min before withdrawal. After the skin was sutured, the mice were placed on a heater for analepsia. For subcutaneous injection, C004019 was diluted with 20% HP-β-CD and injected under the skin on the back neck to reach a final concentration of 3 mg/kg (low dose) or 15 mg/kg (high dose).” left out
The cells or hippocampal/cortex tissues were homogenized for ~ 30 min on ice in buffer [50 mM Tris·HCl pH 7.4-7.5, 100 mM NaCl, 1% (vol/vol) Triton X-100, 5 mM EDTA, 1:100 PMSF, 1:1,000 protease inhibitor cocktail containing 4-(2-Aminoethyl)-benzenesulfonyl fluoride hydrochloride, aprotinin, bestatin, leupeptin, E-64, and pepstatin A stored at 4 °C], and then centrifuged at 12,000 × g at 4 °C for 20 min. The supernatant was collected and the protein levels were analyzed using bicinchoninic acid (BCA, KF016, Sigma-Aldrich) by following the manufacturer's instruction (served as soluble protein). […] Immunoreactive bands were quantitatively analyzed by Image J2x software. […]

[3] = test system: tau; experiment: Tau clearance in SH-SY5Y cells by Western blotting; type: cell-based, human
Experimental: (§2) SH-SY5Y human neuroblastoma cells were cultured in 90% DME/F-12 medium (HyClone, SH30023.01) with 10% fetal bovine serum (FBS) (Biological Industries, 04-001-1ACS) and penicillin (100 U/mL)/ streptomycin (100 μg/mL) in a 37 °C incubator with humidified atmosphere of 5% CO2. Human embryonic kidney 293 cells (HEK293) or HEK293 with stable expression of wild-type full-length human tau (termed as HEK293-hTau) were cultured in 90% DMEM/High Glucose medium (HyClone, SH30022.01) containing 10% FBS and 200 μg/mL G418 (ThermoFisher Scientific, 10131027), in a humidified atmosphere of 5% CO2 at 37 °C. Neofect (DNA transfection reagent, TF20121201) was used for plasmids transfection. The cells were placed onto 6-well or 12-well plates. Plasmids (EGFP-hTau or 3xFlag-hTau or the vector), neofect and Opti-MEM medium (Gibco, 31985-070) were made into a mixture in a ratio of 1 μg: 1 μL : 100 μL and then added into each well of the plate. To inhibit proteasome activity, HEK293-hTau cells were cultured with DMEM/High medium containing 20 μM C004019 with or without 10 μM MG132, or the same volume of vehicle (DMSO) for 24 h at 37 °C. To induce tau hyperphosphorylation, SH-SY5Y cells were cultured with DME/F-12 medium containing 10 μM C004019 with or without 1 μM GFX and 1 μM WO for 24 h at 37 °C.
(§3) The cells or hippocampal/cortex tissues were homogenized for ~ 30 min on ice in buffer [50 mM Tris·HCl pH 7.4-7.5, 100 mM NaCl, 1% (vol/vol) Triton X-100, 5 mM EDTA, 1:100 PMSF, 1:1,000 protease inhibitor cocktail containing 4-(2-Aminoethyl)-benzenesulfonyl fluoride hydrochloride, aprotinin, bestatin, leupeptin, E-64, and pepstatin A stored at 4 °C], and then centrifuged at 12,000 × g at 4 °C for 20 min. The supernatant was collected and the protein levels were analyzed using bicinchoninic acid (BCA, KF016, Sigma-Aldrich) by following the manufacturer's instruction (served as soluble protein). The pellet was further incubated with 8% (wt/vol) SDS buffer at 4 °C and then treated by ultrasonic wave to reach a complete resuspension. […] Immunoreactive bands were quantitatively analyzed by Image J2x software.

[4] = molecular target: T2, human tau (hTau) (Homo sapiens, UniProt P10636); experiment: Tau clearance in HEK293-hTau cells by Western blotting; type: cell-based
T2 construct: expressed in transfected cells
T2 sequence (P10636 1-441 isoform P10636-8): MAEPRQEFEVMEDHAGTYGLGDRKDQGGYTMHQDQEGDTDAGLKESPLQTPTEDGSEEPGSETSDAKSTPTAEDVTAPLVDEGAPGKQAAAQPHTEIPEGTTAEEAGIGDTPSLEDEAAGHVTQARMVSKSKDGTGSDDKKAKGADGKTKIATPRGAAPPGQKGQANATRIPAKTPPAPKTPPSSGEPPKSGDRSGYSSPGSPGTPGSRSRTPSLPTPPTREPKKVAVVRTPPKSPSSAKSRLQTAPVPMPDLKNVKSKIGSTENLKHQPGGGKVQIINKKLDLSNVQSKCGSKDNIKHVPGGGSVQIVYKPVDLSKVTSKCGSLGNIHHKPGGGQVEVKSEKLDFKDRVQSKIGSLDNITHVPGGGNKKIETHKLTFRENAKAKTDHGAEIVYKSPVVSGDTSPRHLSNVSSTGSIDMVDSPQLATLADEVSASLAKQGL
Experimental: as §2, §3

total tau and p-tau levels in hippocampus and cortex [2]: reduced total tau and the p-tau levels | total tau (Tau5) and p-tau level ([4]; HEK293-hTau cells, Western blotting): concentration-dependent reduction | DC50 ([4]; cultured cells, read-out: DC50 (tau degrader)): ~5 nM
Structure (SMILES): CC(=O)N1CCCN(c2nc(NCCc3cccs3)nc(N(C)CC(=O)NCCOCCOCCOCC(=O)N[C@H](C(=O)N3C[C@H](O)C[C@H]3C(=O)NCc3ccc(-c4scnc4C)cc3)C(C)(C)C)n2)CC1 [C004019]
p-tau and tau aggregation (HT7, AT8 immunohistochemistry, Thioflavin S staining) [1]: Reduction of p-tau and tau aggregation | soluble and insoluble tau in cortex extracts ([1]; Western blotting): could reduce both soluble and insoluble tau | total and p-tau levels in hippocampal extracts ([1]; Western blotting): significantly reduced total and p-tau levels | p-tau and total tau levels under induced tau hyperphosphorylation ([3]; 10 μM C004019 with WO (1 μM) plus GFX (1 μM), 24 h): could efficiently decrease p-tau and total tau levels | phosphorylated tau level ([3]; 20 μM): could decrease phosphorylated tau | total tau (Tau5) and p-tau level ([3]; Western blotting): concentration-dependent reduction
